Source: patent publication US10167276B2, “Compounds and methods for inhibiting JAK” (Dizal (Jiangsu) Pharmaceutical Co., Ltd., priority 2015, dated 2019)

Key:
[1] = test system: STAT3 phosphorylation in NCI-H1975 cells; experiment: Cellular pSTAT3 assay in NCI-H1975 cells; assay type: cell-based; conditions: Homo sapiens, 2 hours with compound
Description: NCI-H1975 cells were plated onto Costar #3701 96 or 384 well tissue-culture treated plates at 5,000 cells/well in 30 uL medium (RPMI, 10% FBS, supplemented with L-glutamine) and incubated overnight at 37° C. in 5% CO2. Phospho STAT3 signal was quantitated utilizing Cell Signaling Technology #7146B Pathscan […] STAT3 antibody pair kit, following manufacturer's instructions.
Cells were dosed with compound and incubated at 37° C. in 5% CO2 for 2 hours, after which medium and compound were aspirated and cells lysed with 35 uL cold 1×Cell Signaling Lysis buffer and chilled at 4° C. for 1-2 hours. Lysate was incubated on STAT3 capture plates at 4° C. overnight, washed 3× with Tris-Buffered Saline with 0.05% Tween® 20 (TBST), then […] STAT3 detection antibody was applied for 2 hours. Following washing with TBST (3×), HRP-secondary antibody was applied for 2 hours. After additional washing, signal was detected using TMB and Stop solution and read at 450 nm using Tecan Infinite M100.

[2] = target: JAK1 (Homo sapiens (Human), UniProt P23458); experiment: Enzyme inhibition studies, recombinant JAK1 (Caliper peptide phosphorylation); assay type: biochemical; conditions: recombinant JAK1 (amino acids 866-1154); assayed at ATP Km (55 μM) and 5 mM ATP, table does not say which
Sequence of JAK1 (P23458 866-1154): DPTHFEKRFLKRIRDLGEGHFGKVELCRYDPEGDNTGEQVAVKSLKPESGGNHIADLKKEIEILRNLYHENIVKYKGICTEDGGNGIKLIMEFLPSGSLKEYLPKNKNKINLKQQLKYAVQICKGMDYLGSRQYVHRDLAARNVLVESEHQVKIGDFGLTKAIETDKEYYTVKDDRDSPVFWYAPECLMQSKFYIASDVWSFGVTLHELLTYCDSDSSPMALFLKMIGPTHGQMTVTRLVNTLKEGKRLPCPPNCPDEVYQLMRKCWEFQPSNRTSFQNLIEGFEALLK
Description: (§1) Enzyme inhibition studies were performed using recombinant JAK1 (amino acids 866-1154, Life Technologies, #PV4774, Carlsbad, Calif.), JAK2 (amino acids 831-1132), or JAK3 (amino acids 781-1124) under buffer conditions of 50 mM HEPES pH 7.3, 1 mM DTT, 0.01% Tween® 20, 50 μg/mL BSA, and 10 mM MgCl2. JAK enzyme was expressed as an N-terminal GST fusion in insect cells and purified by glutathione-affinity and size-exclusion chromatographies. […] Phosphorylated and unphosphorylated peptides were separated and quantified by a Caliper LC3000 system (Caliper Life Sciences, MA) for calculating percent inhibition.

[3] = target: JAK2 (Homo sapiens (Human), UniProt O60674); experiment: Enzyme inhibition studies, recombinant JAK2 (Caliper peptide phosphorylation); assay type: biochemical; conditions: recombinant JAK2 (amino acids 831-1132); assayed at ATP Km (15 μM) and 5 mM ATP, table does not say which
Sequence of JAK2 (O60674 831-1132): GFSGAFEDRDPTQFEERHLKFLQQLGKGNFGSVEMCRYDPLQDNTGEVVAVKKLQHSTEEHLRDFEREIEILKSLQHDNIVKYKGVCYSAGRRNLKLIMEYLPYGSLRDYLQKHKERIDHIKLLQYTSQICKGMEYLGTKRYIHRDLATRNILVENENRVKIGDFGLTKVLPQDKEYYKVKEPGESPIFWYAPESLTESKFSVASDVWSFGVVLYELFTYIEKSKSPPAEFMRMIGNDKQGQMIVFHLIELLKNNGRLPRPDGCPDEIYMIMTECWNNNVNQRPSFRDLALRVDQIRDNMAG
Description: as §1

[4] = target: JAK3 (Homo sapiens (Human), UniProt P52333); experiment: Enzyme inhibition studies, recombinant JAK3 (Caliper peptide phosphorylation); assay type: biochemical; conditions: recombinant JAK3 (amino acids 781-1124); assayed at ATP Km (3 μM) and 5 mM ATP, table does not say which
Sequence of JAK3 (P52333 781-1124): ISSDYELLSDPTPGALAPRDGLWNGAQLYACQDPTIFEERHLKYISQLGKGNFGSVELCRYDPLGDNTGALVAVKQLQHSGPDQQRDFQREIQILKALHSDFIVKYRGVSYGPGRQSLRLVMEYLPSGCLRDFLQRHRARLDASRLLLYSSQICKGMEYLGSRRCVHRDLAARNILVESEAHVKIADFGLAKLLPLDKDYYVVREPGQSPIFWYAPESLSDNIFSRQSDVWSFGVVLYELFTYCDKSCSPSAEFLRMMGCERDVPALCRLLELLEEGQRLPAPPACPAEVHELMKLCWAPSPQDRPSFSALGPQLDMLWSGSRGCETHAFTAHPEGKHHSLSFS
Description: as §1

| Structure (SMILES) | IC50 [1] | further results |
| --- | --- | --- |
| CC[C@@H](C(=O)Nc1cccc2c(-c3nc(Nc4cn(C)nc4C)ncc3F)c[nH]c12)N1CCN(C)CC1 [Example 50, (2S)-N-{3-[2-[(1,3-dimethyl-1H-pyrazol-4-yl)amino]-5-fluoropyrimidin-4-yl}-1H-indol-7-yl)-2-(4-methylpiperazin-1-yl)butanamide] | 999 nM | – |
| CC[C@H](C(=O)Nc1cccc2c(-c3nc(Nc4cn(C)nc4OC)ncc3F)c[nH]c12)N1CCN(C)CC1 [Example 51, (2R)-N-(3-{5-fluoro-2-[(3-methoxy-1-methyl-1H-pyrazol-4-yl)amino]pyrimidin-4-yl}-1H-indol-7-yl)-2-(4-methylpiperazin-1-yl)butanamide] | 111 nM | – |
| CC[C@@H](C(=O)Nc1cccc2c(-c3nc(Nc4cn(C)nc4OC)ncc3F)c[nH]c12)N1CCN(C)CC1 [Example 52, (2S)-N-(3-{5-fluoro-2-[(3-methoxy-1-methyl-1H-pyrazol-4-yl)amino]pyrimidin-4-yl}-1H-indol-7-yl)-2-(4-methylpiperaizn-1-yl)butanamide] | 548 nM | – |
| COC[C@H](C(=O)Nc1cccc2c(-c3nc(Nc4cn(C)nc4C)ncc3F)c[nH]c12)N1CCN(C)CC1 [Example 53, (2R)-N-(3-{2-[(1,3-dimethyl-1H-pyrazol-4-yl)amino]-5-fluoropyrimidin-4-yl}-1H-indol-7-yl)-3-methoxy-2-(4-methylpiperazin-1-yl)propanamide] | 56.6 nM | – |
| COC[C@@H](C(=O)Nc1cccc2c(-c3nc(Nc4cn(C)nc4C)ncc3F)c[nH]c12)N1CCN(C)CC1 [Example 54, (2S)-N-{3-[2-[(1,3-dimethyl-1H-pyrazol-4-yl)amino]-5-fluoropyrimidin-4-yl}-1H-indol-7-yl)-3-methoxy-2-(4-methylpiperazin-1-yl)propanamide] | > 3000 nM | – |
| CCc1nn(C)cc1Nc1ncc(C)c(-c2c[nH]c3c(NC(=O)[C@@H](C)N4CCN(C)CC4)cccc23)n1 [Example 55, (2R)-N-(3-{2-[(3-ethyl-1-methyl-1H-pyrazol-4-yl)amino]-5-methylpyrimidin-4-yl}-1H-indol-7-yl)-2-(4-methylpiperazin-1-yl)propanamide] | 116 nM | – |
| Cc1nn(C)cc1Nc1ncc(F)c(-c2c[nH]c3c(NC(=O)[C@@H](C)N4CCN(C)CC4)cccc23)n1 [Example 56, (2R)-N-(3-{2-[(1,3-dimethyl-1H-pyrazol-4-yl)amino]-5-fluoropyrimidin-4-yl}-1H-indol-7-yl)-2-(4-methylpiperaizn-1-yl)propanamide] | 126 nM | – |
| Cc1nn(C)cc1Nc1nccc(-c2c[nH]c3c(NC(=O)[C@@H](C)N4CCN(C)CC4)cccc23)n1 [Example 57, (2R)-N-(3-{2-[(1,3-dimethyl-1H-pyrazol-4-yl)amino]pyrimidin-4-yl}-1H-indol-7-yl)-2-(4-methylpiperaizn-1-yl)propanamide] | 155 nM | – |
| CCn1cc(Nc2ncc(C)c(-c3c[nH]c4c(NC(=O)[C@@H](C)N5CCN(C)CC5)cccc34)n2)c(OC)n1 [Example 58, (2R)-N-(3-{2-[(1-ethyl-3-methoxy-1H-pyrazol-4-yl)amino]-5-methylpyrimidin-4-yl}-1H-indol-7-yl)-2-(4-methylpiperazin-1-yl)propanamide] | 106 nM | – |
| CCOc1nn(CC)cc1Nc1ncc(C)c(-c2c[nH]c3c(NC(=O)[C@@H](C)N4CCN(C)CC4)cccc23)n1 [Example 59, (2R)-N-(3-{2-[(3-ethoxy-1-ethyl-1H-pyrazol-4-yl)amino]-5-methylpyrimidin-4-yl}-1H-indol-7-yl)-2-(4-methylpiperazin-1-yl)propanamide] | 245 nM | – |
| COC[C@H](C(=O)Nc1cccc2c(-c3ccnc(Nc4cn(C)nc4OC)n3)c[nH]c12)N1CCN(C)CC1 [Example 60, (2R)-3-Methoxy-N-(3-{2-[(3-methoxy-1-methyl-1H-pyrazol-4-yl)amino]pyrimidin-4-yl}-1H-indol-7-yl)-2-(4-methylpiperazin-1-yl)propanamide] | 97.3 nM | – |
| COC[C@@H](C(=O)Nc1cccc2c(-c3ccnc(Nc4cn(C)nc4OC)n3)c[nH]c12)N1CCN(C)CC1 [Example 61, (2S)-3-Methoxy-N-(3-{2-[(3-methoxy-1-methyl-1H-pyrazol-4-yl)amino]pyrimidin-4-yl}-1H-indol-7-yl}-2-(4-methylpiperazin-1-yl)propanamide] | 1270 nM | – |
| CCOc1nn(C)cc1Nc1ncc(C)c(-c2c[nH]c3c(NC(=O)[C@@H](CC)N4CCN(C)CC4)cccc23)n1 [Example 62, (2R)-N-(3-{2-[(3-ethoxy-1-methyl-1H-pyrazol-4-yl)amino]-5-methylpyrimidin-4-yl}-1H-indol-7-yl)-2-(4-methylpiperazin-1-yl)butanamide] | 104 nM | – |
| CCOc1nn(C)cc1Nc1ncc(C)c(-c2c[nH]c3c(NC(=O)[C@H](CC)N4CCN(C)CC4)cccc23)n1 [Example 63, (2S)-N-(3-{2-[(3-ethoxy-1-methyl-1H-pyrazol-4-yl)amino]-5-methypyrimidin-4-yl}-1H-indol-7-yl)-2-(4-methylpiperazin-1-yl)butanamide] | 433 nM | – |
| CCOc1nn(C)cc1Nc1ncc(C)c(-c2c[nH]c3c(NC(=O)[C@@H](COC)N4CCN(C)CC4)cccc23)n1 [Example 64, (2R)-N-(3-{2-[(3-ethoxy-1-methyl-1H-pyrazol-4-yl)amino]-5-methylpyrimidin-4-yl}-1H-indol-7-yl)-3-methoxy-2-(4-methylpiperazin-1-yl)propanamide] | 112 nM | IC50 [2]: < 5 nM; IC50 [3]: 2040 nM; IC50 [4]: > 30000 nM |
| CCOc1nn(C)cc1Nc1ncc(C)c(-c2c[nH]c3c(NC(=O)[C@H](COC)N4CCN(C)CC4)cccc23)n1 [Example 65, (2S)-N-(3-{2-[(3-ethoxy-1-methyl-1H-pyrazol-4-yl)amino]-5-methylpyrimidin-4-yl}-1H-indol-7-yl)-3-methoxy-2-(4-methylpiperazin-1-yl)propanamide] | 1030 nM | IC50 [2]: 2530 nM; IC50 [3]: > 30000 nM; IC50 [4]: > 30000 nM |
